In ChEMBL document CHEMBL1201862, “PubChem BioAssay data set” (2004):
Active and inactive are the calls of the source.

How the values were obtained:
Streptokinase A = target: T1, Streptokinase A (Streptococcus pyogenes serotype M1, UniProt P10520); experiment: viability-normalized secreted streptokinase activity reduction – plasminogen activation absorbance, OD405, dose response (AID 1914); type: functional, Streptococcus pyogenes M1 GAS;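 further: secreted streptokinase activity via plasminogen activation per viability signal from cell pellet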
T1 sequence (P10520 whole entry): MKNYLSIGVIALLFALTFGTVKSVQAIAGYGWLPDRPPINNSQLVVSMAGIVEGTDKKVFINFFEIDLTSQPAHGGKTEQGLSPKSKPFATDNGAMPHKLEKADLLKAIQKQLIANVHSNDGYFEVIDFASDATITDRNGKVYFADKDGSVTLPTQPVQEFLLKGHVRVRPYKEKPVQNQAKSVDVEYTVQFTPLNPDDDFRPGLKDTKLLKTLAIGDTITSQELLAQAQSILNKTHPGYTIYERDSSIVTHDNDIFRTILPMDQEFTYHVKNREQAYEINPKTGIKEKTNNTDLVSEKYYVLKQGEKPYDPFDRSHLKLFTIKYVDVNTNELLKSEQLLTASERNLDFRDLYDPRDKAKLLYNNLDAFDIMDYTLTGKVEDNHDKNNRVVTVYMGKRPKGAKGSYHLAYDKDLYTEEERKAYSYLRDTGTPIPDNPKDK

Streptococcus = experiment: GAS UMAA2166 growth inhibition – luminescence, BacTiterGlo, counter-screen for streptokinase expression inhibitor project, dose response (AID 1915); type: functional, organism-based;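 further: potency for reduction of bacterial viability or growth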
cells = type: functional
[1] = system: Streptococcus sp. 'group A'; experiment: Streptococcus pyogenes SK(-)GAS viability under kanamycin – luminescence, BacTiterGlo, confirmation, counter-screen for streptokinase expression inhibitor project, dose response (AID 1900); type: functional, organism-based
[2] = target: T2, Carboxy-terminal domain RNA polymerase II polypeptide A small phosphatase 1 (Homo sapiens, UniProt Q9GZU7); experiment: CTDSP1 inhibitors, concentration-response, biochemical, absorbance readout, ultra-high-throughput screen actives (AID 540297); type: functional
T2 sequence (Q9GZU7 whole entry): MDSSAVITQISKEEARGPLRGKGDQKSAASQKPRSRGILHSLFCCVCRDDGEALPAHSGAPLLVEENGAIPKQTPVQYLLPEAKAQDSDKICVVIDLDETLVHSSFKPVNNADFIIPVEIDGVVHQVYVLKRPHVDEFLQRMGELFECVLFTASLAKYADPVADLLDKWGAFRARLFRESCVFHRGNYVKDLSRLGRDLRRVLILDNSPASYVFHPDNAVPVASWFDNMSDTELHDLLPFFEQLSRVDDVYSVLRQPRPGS

Cytochrome P450 2C19 = Cytochrome P450 2C19 (Homo sapiens, UniProt P33261); experiment: Cytochrome panel assay with activity outcomes. Panel member name: p450-cyp2c19 Compounds with AC50 equal or less than 10 uM are considered active; type: functional; settings: read-out: AC50
Cytochrome P450 2C19, sequence (P33261 whole entry): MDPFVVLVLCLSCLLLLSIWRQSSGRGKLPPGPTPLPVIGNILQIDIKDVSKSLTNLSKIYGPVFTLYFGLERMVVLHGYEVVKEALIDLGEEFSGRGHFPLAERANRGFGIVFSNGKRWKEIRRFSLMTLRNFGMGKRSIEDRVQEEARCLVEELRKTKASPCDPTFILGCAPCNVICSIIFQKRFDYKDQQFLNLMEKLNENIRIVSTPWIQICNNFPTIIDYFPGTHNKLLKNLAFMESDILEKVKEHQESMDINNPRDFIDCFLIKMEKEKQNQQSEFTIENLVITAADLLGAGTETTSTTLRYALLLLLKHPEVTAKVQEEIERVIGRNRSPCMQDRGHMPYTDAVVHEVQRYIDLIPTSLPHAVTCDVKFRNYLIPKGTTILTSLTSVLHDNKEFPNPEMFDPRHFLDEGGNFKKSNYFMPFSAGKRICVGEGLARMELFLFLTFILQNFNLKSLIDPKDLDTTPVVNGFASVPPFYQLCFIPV

H4 = experiment: Luminescence Cell-Based Dose Response HTS to Identify Activators of 5'UTR Stem-Loop Driven Prion Protein mRNA Translation in H4 Neuroglioblastoma Cells. [Related pubchem assays: 1829 (Project Summary), 1814 (Primary HTS)]; type: functional; settings: Homo sapiens
[3] = Luminescence Cell-Based Dose Confirmation HTS to Identify Activators of 5'UTR Stem-Loop Driven Alpha-Synuclein mRNA Translation in H4 Neuroglioblastoma Cells. [Related pubchem assays: 1829 (Project Summary), 1814 (Primary HTS)]; type: functional
Protein skinhead-1 = target: T3, Protein skinhead-1 (Caenorhabditis elegans, UniProt P34707); type: functional
T3 sequence (P34707 whole entry): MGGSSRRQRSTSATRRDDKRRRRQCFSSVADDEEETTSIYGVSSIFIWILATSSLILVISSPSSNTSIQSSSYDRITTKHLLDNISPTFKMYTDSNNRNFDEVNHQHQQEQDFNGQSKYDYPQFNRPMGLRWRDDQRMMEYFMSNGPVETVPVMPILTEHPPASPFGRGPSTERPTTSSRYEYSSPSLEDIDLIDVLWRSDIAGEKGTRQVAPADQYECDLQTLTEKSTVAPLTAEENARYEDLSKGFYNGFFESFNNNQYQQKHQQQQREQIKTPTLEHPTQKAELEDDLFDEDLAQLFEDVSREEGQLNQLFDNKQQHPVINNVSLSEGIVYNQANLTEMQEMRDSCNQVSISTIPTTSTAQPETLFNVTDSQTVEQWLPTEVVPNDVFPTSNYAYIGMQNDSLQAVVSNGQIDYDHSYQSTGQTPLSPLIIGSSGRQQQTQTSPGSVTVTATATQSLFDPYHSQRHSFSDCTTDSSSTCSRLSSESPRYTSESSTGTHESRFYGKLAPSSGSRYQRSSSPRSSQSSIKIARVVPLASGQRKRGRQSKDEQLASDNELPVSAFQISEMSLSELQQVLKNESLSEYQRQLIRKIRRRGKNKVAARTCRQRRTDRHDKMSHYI

[4] = Luminescence Cell-Based Dose Response HTS to Identify Activators of Luciferase Translation or Activity in H4 […] Cells. [Related pubchem assays: 1829 (Project Summary), 1814 (Primary HTS)]; type: functional
[5] = non-specific 3'UTR reporter inhibition in Clone20-Shn3RL – cell-based, Renilla luciferase, cherry-picked, counter-screen for Shn3 inhibitor project, dose response (AID 624133); type: functional
[6] = reduction of Shn3 3'UTR-driven luciferase in osteoblasts – cell-based, Clone20 osteoblasts, firefly luciferase, cherry-picked, dose response (AID 624132); type: functional;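 further: firefly luciferase luminescence from reporter carrying the Shn3 3'UTR in osteoblasts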
BJ [7] = experiment: BJ-TERT-LT-ST fibroblast viability loss – cell-based, RAS-independent, luminescence, dose response (AID 1935); type: functional; settings: Homo sapiens;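 further: BJ fibroblasts immortalized with TERT plus LT and ST oncogenes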
BJ [8] = experiment: cells; type: functional, cell-based; settings: Homo sapiens
[9] = DRD fibroblast viability loss – cell-based, non-viral oncogenic, luminescence, dose response (AID 1934); type: functional; settings: Homo sapiens
BJ [10] = experiment: BJ-TERT fibroblast viability loss – cell-based, RAS-independent, luminescence, dose response (AID 1933); type: functional; settings: Homo sapiens
[11] = intracellular Trypanosoma cruzi inhibitors in host cells – cell-based, plate reader, cherry-pick samples, set 3, dose response (AID 651818); type: functional;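 further: compounds incubated with infected cells for about four days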
[12] = P. falciparum Dd2 growth inhibitors, dose response, SYBR Green, cherry-picked samples (AID 1159567); type: functional, cell-based
[13] = fluconazole-exposed Candida albicans growth modulators – fluorescence, retest, confirmation (AID 2467); type: functional, cell-based
[14] = NIH-3T3 fibroblast cytotoxicity, dose response, cytotoxicity control, cell-based, fluorescence, Alamar Blue, secondary assay (AID 2327); type: functional;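 further: NIH-3T3 mouse fibroblasts cultured with fluconazole at 8 µg/mL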

## CCOc1ccccc1C(=O)OCC(=O)Nc1nnc(-c2ccccc2)o1
Streptokinase A
  EC50: > 150 µM (not active)
Streptococcus
  EC50: 14.6 µM (active)
cells
  IC50: 19.2 µM (active)
[1]
  EC50: 4.56 µM (active)

## Cc1ccc2cc(C)c3nnc(SCC(=O)NCc4ccco4)n3c2c1
[2]
  IC50: 8.54 µM (active)
Cytochrome P450 2C19
  AC50: 14.1 µM (inconclusive)

## CCOc1ccc(CNC(=O)Cn2nc(C)c3c(C)n(-c4ccc(C)cc4)nc3c2=O)cc1
[2]
  IC50: 6.46 µM (active)

## O=C(Cn1cnc2sc(-c3ccccc3)cc2c1=O)NCc1ccccc1
[2]
  IC50: 7.5 µM (active)

## C=C(C)CCOC(=O)C(CC(=O)O)NCc1ccco1 (stereo unspecified)
[2]
  IC50: 4.85 µM (active)

## O=C(NC(=S)N1CCN(C/C=C/c2ccccc2)CC1)c1ccco1
cells
  IC50: 32.2 µM (active)

## Sc1c2c(nc3ncnn13)CCC2
cells
  IC50: 16.6 µM (active)

## CCCOC(=O)c1ccc(-c2ccc(C=O)o2)cc1
cells
  IC50: 9.73 µM (active)

## C=CCN1C(=O)C(=O)N(Cc2nc3ccccc3s2)C1=O
H4
  EC50: 0.283 µM (active)
[3]
  EC50: 10.7 µM (active)
Protein skinhead-1
  IC50: > 100 µM (inactive)
[4]
  EC50: 36.3 µM (active)

## C=CCNC(=O)c1cc2c(=O)n3ccccc3nc2s1
[3]
  EC50: 1.08 µM (active)
Protein skinhead-1
  IC50: > 100 µM (inactive)
[4]
  EC50: 0.166 µM (active)

## COc1cc(Cl)c(C)cc1NC(=O)CSc1sc2c(O)cc(=O)[nH]c2c1C#N
[2]
  IC50: 2.46 µM (active)

## O=C(C1=C[C@@H](C2CC2)C[C@@H](OCCCCO)O1)N1CCN(Cc2ccccc2)CC1
[5]
  AC50: > 70 µM (inactive)
[6]
  AC50: > 70 µM (inactive)

## CC1=CC(C)(C)N(C(=O)CCl)c2cc(C)ccc21
BJ [7]
  EC50: > 150 µM (not active)
BJ [8]
  EC50: > 150 µM (not active)
[9]
  EC50: 29.8 µM (active)
BJ [10]
  EC50: 5.77 µM (active)

## NC(=O)c1ccc(NC(=O)COC(=O)c2cc3c(s2)CCC3)cc1
[2]
  IC50: 4.91 µM (active)

## C[C@@H]1CCCCO[C@H](CN(C)Cc2ccc(Cl)c(Cl)c2)[C@@H](C)CN([C@H](C)CO)C(=O)c2cc(NC(=O)CCCCCC(=O)Nc3ccccc3N)ccc2O1
[11]
  AC50: 2.65 µM (active)

## C[C@H]1CN([C@@H](C)CO)C(=O)Cc2cc(N(C)C)ccc2O[C@@H]1CN(C)Cc1ccc(Cl)c(Cl)c1
[11]
  AC50: 2.09 µM (active)

## Cc1ccc(S(=O)(=O)Nc2ccc3c(c2)C(=O)N([C@@H](C)CO)C[C@H](C)[C@@H](CN(C)Cc2ccc(-c4ccccc4)cc2)O3)cc1
[11]
  AC50: 3.88 µM (active)

## C[C@@H]1CN([C@@H](C)CO)C(=O)c2cccc(NC(=O)Nc3ccc4c(c3)OCO4)c2O[C@H]1CN(C)Cc1ccc(Cl)c(Cl)c1
[11]
  AC50: 2.22 µM (active)

## C[C@H]1CN([C@@H](C)CO)C(=O)Cc2cc(NC(=O)Nc3ccc4c(c3)OCO4)ccc2O[C@H]1CN(C)Cc1ccc(-c2ccccc2)cc1
[11]
  AC50: 6.07 µM (active)

## C[C@@H]1CCCCO[C@H](CN(C)Cc2ccc(C(=O)Nc3ccccc3N)cc2)[C@@H](C)CN([C@H](C)CO)C(=O)c2cc(NS(=O)(=O)c3ccc(Cl)cc3)ccc2O1
[11]
  AC50: 1.11 µM (active)

## C[C@@H]1CCCCO[C@@H](CN(C)CC2CCCCC2)[C@@H](C)CN([C@H](C)CO)C(=O)c2cc(NC(=O)Nc3ccc(F)cc3)ccc2O1
[11]
  AC50: 1.64 µM (active)

## CC(C)NC(=O)N(C)C[C@H]1Oc2c(NC(=O)c3cnccn3)cccc2C(=O)N([C@H](C)CO)C[C@H]1C
[11]
  AC50: 3.41 µM (active)

## C[C@@H]1CCCCO[C@H](CN(C)C(=O)Nc2ccc(C(F)(F)F)cc2)[C@@H](C)CN([C@H](C)CO)C(=O)c2cc(NC(=O)NC3CCCCC3)ccc2O1
[11]
  AC50: 2.45 µM (active)

## C[C@@H]1CN([C@@H](C)CO)C(=O)c2cccc(NC(=O)CCCCCC(=O)Nc3ccccc3N)c2O[C@H]1CN(C)Cc1ccc(Oc2ccccc2)cc1
[11]
  AC50: 2.21 µM (active)

## C[C@H](CO)N1C[C@H](C)[C@@H](CN(C)Cc2ccc3c(c2)OCO3)Oc2c(NC(=O)CCCCCC(=O)Nc3ccccc3N)cccc2C1=O
[11]
  AC50: 2.21 µM (active)

## CC(C)C#Cc1ccc([C@@H]2[C@H](CO)N3CCCCN(C(=O)c4ccc5c(c4)OCO5)C[C@@H]23)cc1
[12]
  AC50: 5.18 µM (active)

## C[C@@H]1CN([C@H](C)CO)C(=O)c2cccc(NS(=O)(=O)c3cccs3)c2O[C@H]1CN(C)Cc1ccc(C(F)(F)F)cc1
[12]
  AC50: 7.6 µM (active)

## CC1=C/C(=N\NC(=S)NCCc2ccccc2)CC(C)(C)C1
H4
  EC50: > 120 µM (not active)
Streptokinase A
  EC50: 64 µM (active)
Streptococcus
  EC50: > 150 µM (not active)
[3]
  EC50: 12.1 µM (active)
[13]
  EC50: > 38 µM (not active)
[14]
  EC50: > 150 µM (inactive)
[1]
  EC50: 11.4 µM (active)
[4]
  EC50: 14.2 µM (active)

## Cc1nn(-c2ccccc2)c(Cl)c1/C=N/NC(=O)c1ccc(NS(=O)(=O)c2cccs2)cc1
H4
  EC50: 9.52 µM (active)
Streptococcus
  EC50: 5.04 µM (active)
[3]
  EC50: 17.3 µM (active)
[1]
  EC50: 2.1 µM (active)
[4]
  EC50: 7.45 µM (active)

## COc1ccccc1-c1cccc(-c2nc(C(=O)Nc3nccs3)cc3c2[C@H](CCO)N(C(=O)CC2CC2)C3)c1
[12]
  AC50: 4.27 µM (active)

## CC(C)(C)[S@+]([O-])N1Cc2cc(C(=O)NCCN3CCCC3)nc(-c3cccc(-c4ccc(C#N)cc4)c3)c2[C@@H]1CCO
[12]
  AC50: 6.6 µM (active)

## CO[C@@H]1CN(C)C(=O)c2ccc(NC(=O)NC3CCCCC3)cc2OC[C@@H](C)N(CCc2ccccc2)C[C@H]1C
[12]
  AC50: 5.41 µM (active)
